For this series the following is noted: Crystal 1; visual observation.

SMILES strings stand for the structures. Numbers after ± are expanded uncertainties.

On to `CCCCc1ccc(C(=O)Oc2ccc(C#N)c(F)c2)cc1` [4-cyano-3-fluorophenyl 4-butylbenzoate], for which the Triple point temperature is on record as 288.43 ± 0.39 K.

Values taken from the NIST ThermoML archive (doi:10.1016/j.jct.2012.03.031).
